Measurements taken from the kinase profiling compilation of Christmann-Franck et al. (2016).

Columns and labels:
Experiment in all cases: radiometric filter-binding kinase assay
PIM2 (human) = PIM2 (human) (UniProt Q9P1W9); details: compound 1.0 µM; ATP 5 µM
CHEK1 (human) = CHEK1 (human) (UniProt O14757); details: compound 1.0 µM; ATP 20 µM
[1] = test system: RPS6KB1 (human), P23443 [T412E]; details: compound 1.0 µM; ATP 20 µM
SRC (chicken) = details: compound 1.0 µM, ATP 50 µM
PHKG1 or PHKG2 (human) = PHKG1 or PHKG2 (human) (UniProt P15735+Q16816); details: compound 1.0 µM; ATP 50 µM
LCK (mouse) = details: compound 1.0 µM, ATP 50 µM
CSK (human) = CSK (human) (UniProt P41240); details: compound 1.0 µM; ATP 20 µM
Chain of CSK (human) (P41240 whole entry, looked up): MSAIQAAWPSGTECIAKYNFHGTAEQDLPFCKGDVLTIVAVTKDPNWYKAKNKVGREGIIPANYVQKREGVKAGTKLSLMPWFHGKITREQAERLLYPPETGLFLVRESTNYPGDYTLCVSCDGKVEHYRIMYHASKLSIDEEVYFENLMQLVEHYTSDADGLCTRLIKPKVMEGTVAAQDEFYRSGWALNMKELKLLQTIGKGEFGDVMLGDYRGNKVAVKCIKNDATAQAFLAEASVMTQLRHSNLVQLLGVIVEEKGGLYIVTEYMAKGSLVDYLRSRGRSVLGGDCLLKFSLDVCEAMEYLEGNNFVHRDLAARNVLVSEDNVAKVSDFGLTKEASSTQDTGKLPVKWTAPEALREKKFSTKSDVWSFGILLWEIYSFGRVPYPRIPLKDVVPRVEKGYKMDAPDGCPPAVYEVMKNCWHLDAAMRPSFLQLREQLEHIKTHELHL

STK3 (human) = STK3 (human) (UniProt Q13188); details: compound 1.0 µM; ATP 20 µM
HIPK2 (human) = HIPK2 (human) (UniProt Q9H2X6); details: compound 1.0 µM; ATP 5 µM
Chain of HIPK2 (human) (Q9H2X6 whole entry, looked up): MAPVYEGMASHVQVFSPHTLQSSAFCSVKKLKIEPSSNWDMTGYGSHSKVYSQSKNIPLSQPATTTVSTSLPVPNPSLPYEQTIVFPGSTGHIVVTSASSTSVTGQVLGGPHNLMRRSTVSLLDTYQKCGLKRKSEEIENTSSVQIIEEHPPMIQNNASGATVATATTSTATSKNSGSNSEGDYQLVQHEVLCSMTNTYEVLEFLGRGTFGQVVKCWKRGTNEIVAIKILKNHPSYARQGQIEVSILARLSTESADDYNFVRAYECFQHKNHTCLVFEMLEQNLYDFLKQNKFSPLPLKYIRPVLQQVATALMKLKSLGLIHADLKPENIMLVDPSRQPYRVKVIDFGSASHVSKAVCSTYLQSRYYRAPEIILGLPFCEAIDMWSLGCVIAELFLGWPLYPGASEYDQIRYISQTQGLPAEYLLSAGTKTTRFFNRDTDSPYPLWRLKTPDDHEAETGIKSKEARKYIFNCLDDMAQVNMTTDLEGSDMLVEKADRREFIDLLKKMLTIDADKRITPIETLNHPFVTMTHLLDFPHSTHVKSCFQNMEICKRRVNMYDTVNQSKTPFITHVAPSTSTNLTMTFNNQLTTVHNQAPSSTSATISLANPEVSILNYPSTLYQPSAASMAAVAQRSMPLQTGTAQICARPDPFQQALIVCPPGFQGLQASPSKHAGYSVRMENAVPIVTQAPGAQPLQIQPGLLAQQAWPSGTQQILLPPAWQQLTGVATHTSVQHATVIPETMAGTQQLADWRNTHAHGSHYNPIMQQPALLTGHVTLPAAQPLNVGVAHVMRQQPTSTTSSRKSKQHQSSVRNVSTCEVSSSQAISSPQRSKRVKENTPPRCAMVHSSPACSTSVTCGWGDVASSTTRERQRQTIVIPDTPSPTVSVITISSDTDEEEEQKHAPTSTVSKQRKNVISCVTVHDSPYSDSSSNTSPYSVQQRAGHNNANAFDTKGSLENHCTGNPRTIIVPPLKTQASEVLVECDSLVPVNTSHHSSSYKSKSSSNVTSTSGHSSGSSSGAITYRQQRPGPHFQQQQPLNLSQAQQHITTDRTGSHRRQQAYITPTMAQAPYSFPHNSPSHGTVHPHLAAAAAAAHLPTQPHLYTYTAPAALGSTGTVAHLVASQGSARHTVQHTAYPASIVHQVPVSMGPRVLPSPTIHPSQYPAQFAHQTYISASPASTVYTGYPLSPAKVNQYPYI

[2] = target: PRKACA or PRKACB or PRKACG (human) (UniProt P22694+P22612+P17612); details: compound 1.0 µM
PRKAA1 or PRKAA2 (rat) = details: compound 1.0 µM
MAPK3 (human) = MAPK3 (human) (UniProt P27361); details: compound 1.0 µM; ATP 5 µM
Chain of MAPK3 (human) (P27361 whole entry, looked up): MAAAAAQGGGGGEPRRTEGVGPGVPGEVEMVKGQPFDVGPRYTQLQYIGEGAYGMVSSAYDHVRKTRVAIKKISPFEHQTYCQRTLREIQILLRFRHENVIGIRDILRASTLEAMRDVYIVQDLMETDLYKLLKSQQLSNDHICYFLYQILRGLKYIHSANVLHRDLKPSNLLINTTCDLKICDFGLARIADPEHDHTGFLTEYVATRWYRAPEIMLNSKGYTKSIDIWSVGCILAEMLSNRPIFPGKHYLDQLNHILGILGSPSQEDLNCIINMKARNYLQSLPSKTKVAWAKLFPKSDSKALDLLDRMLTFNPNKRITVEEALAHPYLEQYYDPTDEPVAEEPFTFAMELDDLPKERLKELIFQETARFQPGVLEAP

SRPK1 (human) = SRPK1 (human) (UniProt Q96SB4); details: compound 1.0 µM; ATP 50 µM
PAK6 (human) = PAK6 (human) (UniProt Q9NQU5); details: compound 1.0 µM; ATP 20 µM
PIM3 (human) = PIM3 (human) (UniProt Q86V86); details: compound 1.0 µM; ATP 20 µM
MAPK12 (human) = MAPK12 (human) (UniProt P53778); details: compound 1.0 µM; ATP 5 µM
MAPKAPK5 (human) = MAPKAPK5 (human) (UniProt Q8IW41); details: compound 1.0 µM; ATP 20 µM
[3] = test system: AKT1 (human), P31749 [S473D]; details: compound 1.0 µM; ATP 5 µM
PIM1 (human) = PIM1 (human) (UniProt P11309); details: compound 1.0 µM; ATP 20 µM
MAPK11 (human) = MAPK11 (human) (UniProt Q15759); details: compound 1.0 µM; ATP 20 µM
Chain of MAPK11 (human) (Q15759 whole entry, looked up): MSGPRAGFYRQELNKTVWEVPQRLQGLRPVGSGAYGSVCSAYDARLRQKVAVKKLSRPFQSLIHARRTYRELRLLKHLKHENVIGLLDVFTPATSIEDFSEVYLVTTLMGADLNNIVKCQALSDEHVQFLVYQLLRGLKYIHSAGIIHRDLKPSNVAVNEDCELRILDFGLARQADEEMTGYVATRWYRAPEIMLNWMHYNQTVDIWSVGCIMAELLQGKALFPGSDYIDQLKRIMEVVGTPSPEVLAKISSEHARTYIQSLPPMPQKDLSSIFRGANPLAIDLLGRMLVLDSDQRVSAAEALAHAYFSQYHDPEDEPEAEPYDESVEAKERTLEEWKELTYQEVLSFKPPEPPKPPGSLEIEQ

CDK2 CCNA2 (human) = CDK2 CCNA2 (human) (UniProt P24941+P20248); details: compound 1.0 µM
Chain of CDK2 CCNA2 (human) (P20248 whole entry, looked up, other chains not shown): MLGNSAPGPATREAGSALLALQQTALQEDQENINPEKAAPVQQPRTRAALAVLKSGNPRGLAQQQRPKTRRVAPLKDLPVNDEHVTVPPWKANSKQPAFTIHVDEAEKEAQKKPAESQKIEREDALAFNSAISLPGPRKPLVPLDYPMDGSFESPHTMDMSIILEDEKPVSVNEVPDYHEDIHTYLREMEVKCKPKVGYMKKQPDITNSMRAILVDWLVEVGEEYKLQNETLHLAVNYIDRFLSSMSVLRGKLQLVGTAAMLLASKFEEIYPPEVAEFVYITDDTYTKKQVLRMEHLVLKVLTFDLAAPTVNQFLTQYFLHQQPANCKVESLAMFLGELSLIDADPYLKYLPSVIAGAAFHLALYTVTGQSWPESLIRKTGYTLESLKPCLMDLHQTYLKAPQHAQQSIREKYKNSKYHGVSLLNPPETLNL

RPS6KA1 KD1 KD2 (human) = RPS6KA1 KD1 KD2 (human) (UniProt Q15418); details: compound 1.0 µM; ATP 50 µM
Chain of RPS6KA1 KD1 KD2 (human) (Q15418 whole entry, looked up): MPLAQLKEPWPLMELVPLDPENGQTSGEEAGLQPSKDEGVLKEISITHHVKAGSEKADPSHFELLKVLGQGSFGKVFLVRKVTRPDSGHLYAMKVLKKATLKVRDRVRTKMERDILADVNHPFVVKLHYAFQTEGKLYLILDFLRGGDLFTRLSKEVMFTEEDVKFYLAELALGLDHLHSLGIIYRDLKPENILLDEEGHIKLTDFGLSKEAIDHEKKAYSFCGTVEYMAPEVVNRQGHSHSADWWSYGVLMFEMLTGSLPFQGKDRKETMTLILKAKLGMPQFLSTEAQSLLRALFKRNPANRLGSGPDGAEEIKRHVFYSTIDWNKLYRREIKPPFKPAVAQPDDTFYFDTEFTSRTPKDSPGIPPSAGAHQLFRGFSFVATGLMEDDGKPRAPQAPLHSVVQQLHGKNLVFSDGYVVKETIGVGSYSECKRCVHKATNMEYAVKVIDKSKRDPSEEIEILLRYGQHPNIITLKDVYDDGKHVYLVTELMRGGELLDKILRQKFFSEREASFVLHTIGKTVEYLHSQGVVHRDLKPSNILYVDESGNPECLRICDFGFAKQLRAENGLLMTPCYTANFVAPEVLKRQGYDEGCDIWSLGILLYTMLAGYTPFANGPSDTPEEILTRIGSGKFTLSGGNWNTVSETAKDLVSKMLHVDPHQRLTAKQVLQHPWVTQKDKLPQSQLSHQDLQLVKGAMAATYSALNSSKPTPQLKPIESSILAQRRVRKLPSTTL

BRSK2 (human) = BRSK2 (human) (UniProt Q8IWQ3); details: compound 1.0 µM; ATP 50 µM
RPS6KA3 KD1 KD2 (human) = RPS6KA3 KD1 KD2 (human) (UniProt P51812); details: compound 1.0 µM; ATP 50 µM
CHEK2 (human) = CHEK2 (human) (UniProt O96017); details: compound 1.0 µM; ATP 20 µM
[4] = test system: SGK1 (human), O00141 [S422D]; details: compound 1.0 µM; ATP 20 µM
CAMKK2 (human) = CAMKK2 (human) (UniProt Q96RR4); details: compound 1.0 µM; ATP 20 µM
Chain of CAMKK2 (human) (Q96RR4 whole entry, looked up): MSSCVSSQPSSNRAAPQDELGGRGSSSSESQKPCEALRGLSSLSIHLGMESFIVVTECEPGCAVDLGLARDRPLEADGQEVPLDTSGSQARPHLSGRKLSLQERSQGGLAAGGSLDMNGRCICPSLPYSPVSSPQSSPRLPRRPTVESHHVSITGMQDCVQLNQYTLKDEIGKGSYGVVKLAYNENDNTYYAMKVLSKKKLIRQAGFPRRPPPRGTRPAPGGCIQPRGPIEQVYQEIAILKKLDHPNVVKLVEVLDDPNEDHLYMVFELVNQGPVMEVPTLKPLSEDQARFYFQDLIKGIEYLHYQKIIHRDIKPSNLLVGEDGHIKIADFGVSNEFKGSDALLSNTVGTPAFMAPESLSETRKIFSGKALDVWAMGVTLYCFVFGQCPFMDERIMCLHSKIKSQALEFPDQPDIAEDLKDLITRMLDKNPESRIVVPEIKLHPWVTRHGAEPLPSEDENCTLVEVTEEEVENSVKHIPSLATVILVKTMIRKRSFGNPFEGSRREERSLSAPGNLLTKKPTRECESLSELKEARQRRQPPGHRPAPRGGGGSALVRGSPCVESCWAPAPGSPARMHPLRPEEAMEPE

MAP2K1 (human) = MAP2K1 (human) (UniProt Q02750); details: compound 1.0 µM; ATP 5 µM
[5] = accession and sequence are those of the human protein

Chain of RPS6KB1 (human), P23443 [T412E] (P23443 whole entry T412E, looked up): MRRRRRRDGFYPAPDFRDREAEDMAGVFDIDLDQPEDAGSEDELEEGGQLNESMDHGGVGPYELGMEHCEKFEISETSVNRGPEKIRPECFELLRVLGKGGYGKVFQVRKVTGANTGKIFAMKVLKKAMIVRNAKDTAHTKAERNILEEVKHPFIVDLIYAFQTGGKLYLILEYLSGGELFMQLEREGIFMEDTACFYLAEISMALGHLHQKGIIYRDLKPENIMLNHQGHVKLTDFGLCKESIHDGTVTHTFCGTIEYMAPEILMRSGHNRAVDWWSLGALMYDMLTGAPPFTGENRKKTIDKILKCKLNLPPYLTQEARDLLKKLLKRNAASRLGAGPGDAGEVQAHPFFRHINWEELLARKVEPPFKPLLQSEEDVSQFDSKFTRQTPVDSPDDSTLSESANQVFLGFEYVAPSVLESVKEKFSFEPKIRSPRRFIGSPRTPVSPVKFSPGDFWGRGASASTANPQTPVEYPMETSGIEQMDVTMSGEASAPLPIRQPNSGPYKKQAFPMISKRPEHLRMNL
Chain of PIM2 (human) (Q9P1W9 whole entry, looked up): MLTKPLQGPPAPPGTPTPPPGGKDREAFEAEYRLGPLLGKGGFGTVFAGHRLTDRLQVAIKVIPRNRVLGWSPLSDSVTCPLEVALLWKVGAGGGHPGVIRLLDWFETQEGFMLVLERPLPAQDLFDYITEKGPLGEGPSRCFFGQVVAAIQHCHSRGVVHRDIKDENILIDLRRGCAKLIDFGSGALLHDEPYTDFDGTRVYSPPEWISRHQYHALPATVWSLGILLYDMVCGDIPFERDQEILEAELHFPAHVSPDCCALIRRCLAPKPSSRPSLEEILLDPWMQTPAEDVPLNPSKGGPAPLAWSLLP

Compound | residual activity (PIM2 (human)) [%] | residual activity (CHEK1 (human)) [%] | residual activity [1] [%] | residual activity (PHKG1 or PHKG2 (human)) [%] | residual activity (CSK (human)) [%] | residual activity (STK3 (human)) [%] | residual activity (HIPK2 (human)) [%] | residual activity (MAPK3 (human)) [%] | residual activity (SRPK1 (human)) [%] | residual activity (PAK6 (human)) [%] | residual activity (PIM3 (human)) [%] | residual activity (MAPK12 (human)) [%] | residual activity (MAPKAPK5 (human)) [%] | residual activity [3] [%] | residual activity (PIM1 (human)) [%] | residual activity (MAPK11 (human)) [%] | residual activity (RPS6KA1 KD1 KD2 (human)) [%] | residual activity (BRSK2 (human)) [%] | residual activity (RPS6KA3 KD1 KD2 (human)) [%] | residual activity (CHEK2 (human)) [%] | other results
COc1ccc2c(c1)=NC1=C(C)NCCC=21 | 117 | 94 | 93 | 84 | 82 | 101 | 91 | 108 | 89 | 106 | 90 | 120 | 74 | 95 | 104 | 92 | 110 | 103 | 112 | 117 | residual activity (SRC (chicken)): 94%; residual activity (LCK (mouse)): 81%; residual activity [2]: 89%; residual activity (PRKAA1 or PRKAA2 (rat)): 106%; residual activity (CDK2 CCNA2 (human)): 100%; residual activity [4]: 85%; residual activity (CAMKK2 (human)): 89%; residual activity (MAP2K1 (human)): 95%
COC[C@H]1OC(=O)c2coc3c2[C@@]1(C)C1=C(C3=O)[C@@H]2CCC(=O)[C@@]2(C)C[C@H]1OC(C)=O | 83 | 87 | 95 | 74 | 73 | 96 | 94 | 106 | 73 | 86 | 86 | 94 | 69 | 97 | 87 | 97 | 86 | 80 | 90 | 90 | residual activity (SRC (chicken); [5]): 83%; residual activity (LCK (mouse); [5]): 73%; residual activity ([2]; ATP 20 µM): 86%; residual activity (PRKAA1 or PRKAA2 (rat); [5]): 88%; residual activity (CDK2 CCNA2 (human); ATP 20 µM): 95%; residual activity [4]: 86%; residual activity (CAMKK2 (human)): 71%; residual activity (MAP2K1 (human)): 63%
CO[C@H]1CC2CC[C@@H](C)[C@@](O)(O2)C(=O)C(=O)N2CCCC[C@H]2C(=O)OC([C@H](C)C[C@@H]2CC[C@@H](O)[C@H](OC)C2)CC(=O)[C@H](C)/C=C(\C)[C@@H](O)[C@@H](OC)C(=O)[C@H](C)C[C@H](C)/C=C/C=C/C=C/1C (some centres undefined) | 117 | 97 | 106 | 95 | 83 | 90 | 93 | 100 | 84 | 89 | 88 | 81 | 91 | 91 | 91 | 84 | 90 | 90 | 97 | 92 | residual activity (SRC (chicken); [5]): 86%; residual activity (LCK (mouse); [5]): 79%; residual activity ([2]; ATP 20 µM): 77%; residual activity (PRKAA1 or PRKAA2 (rat); [5]): 87%; residual activity (CDK2 CCNA2 (human); ATP 20 µM): 92%; residual activity [4]: 93%; residual activity (CAMKK2 (human)): 83%; residual activity (MAP2K1 (human)): 93%
